Values after ≈ are worked out from the molar mass of the structure shown.
Tests used:
[1] = Inhibition of PI3K/AKT/mTOR in human lung fibroblasts assessed as reduction in AKT phosphorylation at serine473 residue preincubated for 1 hr followed by PDGF-BB stimulation and measured after 10 mins by electrochemiluminescence method
[2] = Intrinsic clearance in human hepatocytes; type: ADME, cell-based, Hepatocyte
[3] = Intrinsic clearance in rat hepatocytes; type: ADME, cell-based, Hepatocyte
[4] = Intrinsic clearance in human microsomes; type: ADME, Microsome
[5] = Inhibition of ligand binding to mTORC1/mTORC2 in human HuT78 cells after 2 hrs by kinobead competition binding assay; type: cell-based
[6] = Lipophilicity, logP of the compound by reversed phase column chromatography; type: physicochemical
[7] = Intrinsic clearance in rat microsomes; type: ADME, Microsome
[8] = Kinetic solubility of the compound in pH 7.4 phosphate buffered saline measured after 1 hr; type: physicochemical; conditions: read-out: Kinetic_solubility
[9] = biological target: Phosphatidylinositol 4,5-bisphosphate 3-kinase catalytic subunit alpha isoform (Homo sapiens, UniProt P42336)
Phosphatidylinositol 4,5-bisphosphate 3-kinase catalytic subunit alpha isoform, sequence (P42336 whole entry, canonical isoform): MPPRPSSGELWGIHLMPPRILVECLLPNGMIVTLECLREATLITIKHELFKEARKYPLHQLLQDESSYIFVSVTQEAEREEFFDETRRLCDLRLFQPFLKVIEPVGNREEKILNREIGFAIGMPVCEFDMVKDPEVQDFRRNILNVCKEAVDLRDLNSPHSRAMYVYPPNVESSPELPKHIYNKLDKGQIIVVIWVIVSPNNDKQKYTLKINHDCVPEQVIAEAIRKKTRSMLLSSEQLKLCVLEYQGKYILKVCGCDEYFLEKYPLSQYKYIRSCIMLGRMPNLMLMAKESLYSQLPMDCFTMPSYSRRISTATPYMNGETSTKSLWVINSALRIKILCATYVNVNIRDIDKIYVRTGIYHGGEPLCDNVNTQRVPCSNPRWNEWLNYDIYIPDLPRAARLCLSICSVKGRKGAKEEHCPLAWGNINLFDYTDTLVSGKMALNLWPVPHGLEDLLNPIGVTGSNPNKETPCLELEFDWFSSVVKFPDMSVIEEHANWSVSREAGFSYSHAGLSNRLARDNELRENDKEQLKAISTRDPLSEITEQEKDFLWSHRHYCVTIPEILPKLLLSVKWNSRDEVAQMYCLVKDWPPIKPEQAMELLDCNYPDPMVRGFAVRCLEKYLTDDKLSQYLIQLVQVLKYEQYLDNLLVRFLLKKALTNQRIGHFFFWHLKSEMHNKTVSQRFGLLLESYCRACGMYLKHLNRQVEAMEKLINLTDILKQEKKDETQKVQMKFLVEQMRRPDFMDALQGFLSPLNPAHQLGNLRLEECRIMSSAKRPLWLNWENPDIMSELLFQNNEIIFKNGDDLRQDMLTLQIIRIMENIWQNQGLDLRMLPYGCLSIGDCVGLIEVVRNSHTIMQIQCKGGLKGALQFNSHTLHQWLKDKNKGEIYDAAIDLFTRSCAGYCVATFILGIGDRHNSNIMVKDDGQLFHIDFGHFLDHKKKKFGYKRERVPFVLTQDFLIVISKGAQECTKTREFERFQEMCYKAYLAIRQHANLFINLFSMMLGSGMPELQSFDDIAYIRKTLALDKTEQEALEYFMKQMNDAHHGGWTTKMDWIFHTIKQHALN
Description: Inhibition of PI3Kalpha (unknown origin) using PIP2 as substrate preincubated for 15 mins followed by substrate addition and measured after 1 hr by HTRF assay

[10] = biological target: T1, Phosphatidylinositol 4,5-bisphosphate 3-kinase catalytic subunit delta isoform (Homo sapiens, UniProt O00329); test: Inhibition of PI3Kdelta (unknown origin) using PIP2 as substrate preincubated for 15 mins followed by substrate addition and measured after 1 hr by HTRF assay
T1 sequence (O00329 whole entry): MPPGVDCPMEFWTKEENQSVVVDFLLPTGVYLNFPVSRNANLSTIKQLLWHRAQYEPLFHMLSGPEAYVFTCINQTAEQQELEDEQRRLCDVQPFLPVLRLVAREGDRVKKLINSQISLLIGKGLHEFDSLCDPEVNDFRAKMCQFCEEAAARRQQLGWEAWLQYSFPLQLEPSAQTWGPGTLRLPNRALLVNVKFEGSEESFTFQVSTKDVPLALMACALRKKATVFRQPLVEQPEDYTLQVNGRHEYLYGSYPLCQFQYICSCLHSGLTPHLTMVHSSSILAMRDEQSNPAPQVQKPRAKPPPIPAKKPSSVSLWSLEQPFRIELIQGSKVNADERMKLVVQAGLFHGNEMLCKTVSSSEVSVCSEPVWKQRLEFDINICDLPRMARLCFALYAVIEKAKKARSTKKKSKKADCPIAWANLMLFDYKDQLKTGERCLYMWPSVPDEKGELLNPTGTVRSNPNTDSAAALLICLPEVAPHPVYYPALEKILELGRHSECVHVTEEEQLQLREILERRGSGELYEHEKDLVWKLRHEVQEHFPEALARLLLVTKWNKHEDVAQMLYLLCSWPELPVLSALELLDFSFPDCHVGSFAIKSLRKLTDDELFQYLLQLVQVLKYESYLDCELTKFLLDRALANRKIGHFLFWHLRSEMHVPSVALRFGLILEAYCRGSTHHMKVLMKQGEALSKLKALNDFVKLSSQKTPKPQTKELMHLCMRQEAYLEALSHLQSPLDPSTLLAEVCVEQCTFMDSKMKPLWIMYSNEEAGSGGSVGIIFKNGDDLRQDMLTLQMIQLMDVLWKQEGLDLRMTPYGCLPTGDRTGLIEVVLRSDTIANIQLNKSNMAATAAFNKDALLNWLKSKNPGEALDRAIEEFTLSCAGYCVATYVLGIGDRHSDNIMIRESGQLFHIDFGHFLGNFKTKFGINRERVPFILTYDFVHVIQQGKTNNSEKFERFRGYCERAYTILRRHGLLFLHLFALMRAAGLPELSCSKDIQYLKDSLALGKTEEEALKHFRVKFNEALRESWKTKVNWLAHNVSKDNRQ

| SMILES | IC50 [1] | CLH [2] | CLH [3] | CL [4] | pIC50 [5] | logP [6] | CL [7] | solubility kinetic at 1 h [8] | IC50 [9] | IC50 [10] |
| --- | --- | --- | --- | --- | --- | --- | --- | --- | --- | --- |
| C[C@H]1COCCN1c1cc(C(C)(C)S(C)(=O)=O)nc(-c2ccc(NC(=S)NCCO)cc2)n1 | 0.0398 µM | 0.9 mL/min/g | 2.8 mL/min/g | 0.9 mL/min/g | 8.4 | 3.6 | 0.8 mL/min/g |  |  |  |
| CC(C)(c1cc([C@]23CCOC[C@H]2C3)nc(-c2ccc(NC(=S)NCCO)cc2)n1)S(C)(=O)=O | 0.0316 µM | 5.1 mL/min/g | 13 mL/min/g | 3.1 mL/min/g | 8.6 | 3.9 | 1.4 mL/min/g | 173 µg/mL (≈ 353 µM) | 25.1 µM | 31.6 µM |
| CCNC(=O)Nc1ccc(-c2nccc([C@]34CCOC[C@H]3C4)n2)cc1 | 2 µM |  |  | 1.5 mL/min/g | 6.1 | 3.9 | 13.6 mL/min/g | 125 µg/mL (≈ 369 µM) | 25.1 µM | 25.1 µM |
| CCNC(=O)Nc1ccc(-c2nccc(N3CCOC[C@@H]3C)n2)cc1 | 1.26 µM |  |  | 1.2 mL/min/g | 6.1 | 3.4 | 2 mL/min/g | 136 µg/mL (≈ 398 µM) | 6.31 µM | 5.01 µM |
| CCNC(=O)Nc1ccc(-c2nccc([C@@]34CCOC[C@@H]3C4)n2)cc1 | 3.16 µM |  |  | 1.4 mL/min/g | 5.5 | 3.9 | 16.7 mL/min/g | 127 µg/mL (≈ 375 µM) | > 31.6 µM | 25.1 µM |

Reference: ChEMBL document CHEMBL4311944, “Discovery of 3-Oxabicyclo[4.1.0]heptane, a Non-nitrogen Containing Morpholine Isostere, and Its Application in Novel Inhibitors of the PI3K-AKT-mTOR Pathway” (J Med Chem, 2019)
